Source: ChEMBL document CHEMBL5260819, “Design and synthesis of 2-phenylpyrimidine coumarin derivatives as anticancer agents” (Bioorg Med Chem Lett, 2017)
pIC50: −log10 of the molar value. The source made the active and inactive calls. The rule behind the calls is not given here.

Tests used:
[1] = system: CAL-27; assay: Anticancer activity against human CAL-27 cells assessed as inhibition of cell growth; type: functional, cell-based
[2] = system: KB; assay: Anticancer activity against human KB cells assessed as inhibition of cell growth; type: functional, cell-based
[3] = system: CNE-2; assay: Anticancer activity against human CNE-2 cells assessed as inhibition of cell growth; type: functional, cell-based
[4] = system: CNE-2; assay: Induction of apoptosis in human CNE-2 cells assessed as early apoptotic cells at 0.5 uM incubated for 4 days by annexin V-FITC/PI double-staining method (reference value: 8%); type: functional; conditions: time 4 day
[5] = system: CNE-2; assay: Anticancer activity against human CNE-2 cells assessed as shortening of telomer length at 0.5 uM incubated for 8 days by TRF analysis; type: functional, cell-based; conditions: time 8.0 day
[6] = system: CNE-2; assay: Induction of apoptosis in human CNE-2 cells assessed as early apoptotic cells at 1 uM incubated for 4 days by annexin V-FITC/PI double-staining method (reference value: 8%); type: functional; conditions: time 4 day
[7] = system: CNE-2; assay: Induction of apoptosis in human CNE-2 cells assessed as dead cells at 1 uM incubated for 4 days by annexin V-FITC/PI double-staining method (reference value: 0%); type: functional; conditions: time 4 day
[8] = system: CNE-2; assay: Anticancer activity against human CNE-2 cells assessed as induction of senescence by measuring shortening of telomer length at 0.5 to 1 uM incubated for 8 days by TRF analysis; type: functional, cell-based; conditions: dose 0.5-1 µM, time 8.0 day
[9] = system: CNE-2; assay: Anticancer activity against human CNE-2 cells assessed as reduction in telomer length at 1 uM incubated for 8 days by TRF analysis; type: functional; conditions: time 8 day
[10] = system: CNE-2; assay: Induction of apoptosis in human CNE-2 cells assessed as live cells at 1 uM incubated for 4 days by annexin V-FITC/PI double-staining method (reference value: 91.9%); type: functional; conditions: time 4 day
[11] = target: Telomerase reverse transcriptase (Homo sapiens, UniProt O14746); assay: Inhibition of telomerase activity in human CNE-2 cells; type: cell-based
Chain of Telomerase reverse transcriptase (O14746 whole entry): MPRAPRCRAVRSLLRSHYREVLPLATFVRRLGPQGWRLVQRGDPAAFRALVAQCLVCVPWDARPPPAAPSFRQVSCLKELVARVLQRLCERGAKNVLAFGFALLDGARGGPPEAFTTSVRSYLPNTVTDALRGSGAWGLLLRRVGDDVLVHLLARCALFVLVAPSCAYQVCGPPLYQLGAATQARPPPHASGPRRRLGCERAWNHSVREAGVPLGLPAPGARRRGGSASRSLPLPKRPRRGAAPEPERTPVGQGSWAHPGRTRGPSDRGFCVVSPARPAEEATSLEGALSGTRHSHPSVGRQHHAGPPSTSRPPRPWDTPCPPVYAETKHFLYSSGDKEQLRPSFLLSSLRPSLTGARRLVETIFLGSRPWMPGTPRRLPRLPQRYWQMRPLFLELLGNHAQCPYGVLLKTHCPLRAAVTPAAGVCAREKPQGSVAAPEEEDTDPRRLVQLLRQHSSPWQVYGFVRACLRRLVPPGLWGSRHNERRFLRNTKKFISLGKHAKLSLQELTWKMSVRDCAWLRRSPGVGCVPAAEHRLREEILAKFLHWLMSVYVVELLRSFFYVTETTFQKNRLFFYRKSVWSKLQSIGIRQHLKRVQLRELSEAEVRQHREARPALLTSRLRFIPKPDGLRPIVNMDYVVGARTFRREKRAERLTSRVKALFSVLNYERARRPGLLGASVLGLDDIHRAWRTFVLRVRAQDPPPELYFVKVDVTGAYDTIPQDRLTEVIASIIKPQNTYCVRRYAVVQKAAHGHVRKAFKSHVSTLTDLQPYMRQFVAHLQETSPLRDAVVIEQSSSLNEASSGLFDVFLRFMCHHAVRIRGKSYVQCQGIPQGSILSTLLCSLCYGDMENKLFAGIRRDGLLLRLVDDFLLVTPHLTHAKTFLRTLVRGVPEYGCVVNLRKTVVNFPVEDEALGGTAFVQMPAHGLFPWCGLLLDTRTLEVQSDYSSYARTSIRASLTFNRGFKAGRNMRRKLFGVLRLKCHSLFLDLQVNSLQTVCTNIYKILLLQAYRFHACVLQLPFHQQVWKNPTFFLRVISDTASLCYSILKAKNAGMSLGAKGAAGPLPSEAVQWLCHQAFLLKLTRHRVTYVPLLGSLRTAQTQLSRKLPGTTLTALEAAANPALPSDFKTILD

[12] = system: CNE-2; assay: Induction of apoptosis in human CNE-2 cells assessed as late apoptotic cells at 0.5 uM incubated for 4 days by annexin V-FITC/PI double-staining method (reference value: 0.1%); type: functional; conditions: time 4 day
[13] = system: CNE-2; assay: Induction of apoptosis in human CNE-2 cells assessed as dead cells at 0.5 uM incubated for 4 days by annexin V-FITC/PI double-staining method (reference value: 0%); type: functional; conditions: time 4 day
[14] = system: CNE-2; assay: Induction of apoptosis in human CNE-2 cells assessed as late apoptotic cells at 1 uM incubated for 4 days by annexin V-FITC/PI double-staining method (reference value: 0.1%); type: functional; conditions: time 4 day
[15] = system: CNE-2; assay: Induction of apoptosis in human CNE-2 cells assessed as live cells at 0.5 uM incubated for 4 days by annexin V-FITC/PI double-staining method (reference value: 91.9%); type: functional; conditions: time 4 day

SMILES	pIC50 [1]	pIC50 [2]	pIC50 [3]	pIC50 [11]	other results
Nc1nc(-c2cccc(OS(=O)(=O)c3ccc(Br)s3)c2)nc2c1c(=O)oc1ccccc12	4.74	4.44	4.73		
CN(C)c1ccc(S(=O)(=O)Oc2cccc(-c3nc(N)c4c(=O)oc5ccccc5c4n3)c2)cc1	5.71	5.43	5.72	6.09	Activity [4]: 28.2%; Activity [5]: Active; Activity [6]: 39.5%; Activity [7]: 0%; Activity [8]: Active; Activity [9]: 0.8 kilobase; Activity [10]: 45.2%; Activity [12]: 6.7%; Activity [13]: 0.1%; Activity [14]: 15.4%; Activity [15]: 65%
Nc1nc(-c2cccc(OS(=O)(=O)c3ccc([N+](=O)[O-])cc3)c2)nc2c1c(=O)oc1ccccc12	5.45	4.77	4.79	4.68	
COc1ccc(S(=O)(=O)Oc2cccc(-c3nc(N)c4c(=O)oc5ccccc5c4n3)c2)cc1	5.02	4.73	4.78		
Nc1nc(-c2cccc(OS(=O)(=O)c3ccc(F)cc3)c2)nc2c1c(=O)oc1ccccc12	5.31	4.94	5.37		
COC(=O)c1ccc(S(=O)(=O)Oc2cccc(-c3nc(N)c4c(=O)oc5ccccc5c4n3)c2)s1	4.32	4.42	< 4.00		
Nc1nc(-c2cccc(OS(=O)(=O)c3ccc(Cl)s3)c2)nc2c1c(=O)oc1ccccc12	4.95	4.68	4.84		
Nc1nc(-c2cccc(OS(=O)(=O)c3ccc(Br)cc3)c2)nc2c1c(=O)oc1ccccc12	4.74	4.80	4.96		
COc1cccc2c1C(=O)c1c(O)c3c(c(O)c1C2=O)C[C@@](O)(C(=O)CO)C[C@@H]3O[C@H]1C[C@H](N)[C@H](O)[C@H](C)O1 [DOXORUBICIN]	5.81	5.52	5.67		
Nc1nc(-c2cccc(OS(=O)(=O)c3ccc(C(F)(F)F)cc3)c2)nc2c1c(=O)oc1ccccc12	5.36	5.13	5.63		
COc1ccc(S(=O)(=O)Oc2cccc(-c3nc(N)c4c(=O)oc5ccccc5c4n3)c2)cc1OC	4.75	4.53	4.69	5.20	
Nc1nc(-c2cccc(OS(=O)(=O)c3ccccc3)c2)nc2c1c(=O)oc1ccccc12	5.59	5.17	5.46	5.50	
CS(=O)(=O)Oc1cccc(-c2nc(N)c3c(=O)oc4ccccc4c3n2)c1	< 4.00	< 4.00	< 4.00	4.23	
Nc1nc(-c2cccc(OS(=O)(=O)c3cccs3)c2)nc2c1c(=O)oc1ccccc12	4.99	5.25	5.37	5.13	
